# Tested on: cultured wild-type mouse astrocytes
# Test: Fura-2 intracellular Ca2+ imaging in cultured wild-type astrocytes
# Format: cell-based
# Conditions: 30 nM thrombin
# Protocol: Cultured astrocytes were prepared from P0-P3 postnatal mice obtained from KIST SPF. The cerebral cortex was dissected free of adherent meninges, minced, and dissociated into single cell suspension by trituration through a Pasteur pipette. All procedures involving the use of animals were reviewed and approved by the Emory University IACUC. Dissociated cells were plated onto either 12 mm glass coverslips or 6 well plates coated with 0.1 mg/ml poly-D-lysine. Cells were grown in a DMEM media (Gibco, cat# 11960-044) supplemented with 25 mM glucose, 10% heat-inactivated horse serum, and 10% heat-inactivated fetal bovine serum, 2 mM glutamine, and 1000 units/ml penicillin-streptomycin. Cultures were maintained at 37° C. in a humidified 5% CO2-containing atmosphere. […] In some experiments, the culture media was replaced 24 hours after plating with DMEM with all added components except glutamine, and cultures were maintained for 4 days before experimentation in glutamine-free media.
# Cultured astrocytes were incubated with 5 µM Fura2-AM in […] pluronic acid (Molecular Probes) for 30 min at room temperature, and subsequently transferred to a microscope stage for imaging. The external solution contained 150 mM NaCl, 10 mM HEPES, 3 mM KCl, 2 mM CaCl2, 2 mM MgCl2, and 5.5 mM glucose, and the pH was adjusted to pH 7.3 and osmolarity to 325 mOsm. Intensity images of a 510 nm wavelength were taken at 340 nm and 380 nm excitation wavelengths using either a Micromax Camera (Princeton) or an intensified video camera (PTI), and the two resulting images were used for ratio calculations using Axon Imaging Workbench version 2.2.1.
substance,measurement,setting,value
thrombin,change in Fura-2 ratio,without or after pretreatment with 1 μM BMS200261,150.9±17.4%
same,level of astrocytic intracellular Ca^2+ (Fura-2 fluorescence ratio),"30 μM TFLLR, 10 μM bradykinin, 50 μM 2-methyl-thio-ATP, 10 μM ATP",robust increase
